The values that follow come from patent publication US10568866B1, “Composition and its use for increasing innate immune health” (priority 2018, dated 2020).

What all share (format): cell-based
Data set [1] relates to IL-6. The experiment in a line: Pro-inflammatory IL-6 release by LPS stimulated RAW264.7 macrophages (ELISA). Particulars: for comparative effectiveness in decreasing IL-6 secretion (in words): 5-20 μg/ml individually, 75 μg/ml mixture, LPS stimulated, FIG. 3. How it is done:
The pro-inflammatory IL-6 release by RAW264.7 macrophages was assessed using the IL-6 Quantikine ELISA assay kit (R&D, Minneapolis, Minn.) according to the manufacturer's protocol. Briefly, 2×10^6 of cells were plated in 6-well plates and allowed to settle for 2-4 h, followed by incubation with different micronutrients and plant extracts (5-20 μg/ml) 24 h at 37° C. in 5% CO2 atmosphere. After the incubation period, cells were stimulated with LPS (10 ng/ml) for additional 24 h and all supernatants were collected and subjected to ELISA assay according to manufacturer's protocol. As a positive control, LPS-stimulated cells without treatment were used. All experiments were done in triplicate.
The effect of naturally-derived agents and their mixture on release of pro-inflammatory IL-6 by RAW264.7 macrophage cell line. Macrophages were pre-incubated with different micronutrients and plant extracts (5-20 μg/ml) individually and in a mixture followed by their stimulation with Lipopolysaccharide (LPS). Each column represents the mean±standard deviation (n=4).

Data set [2] deals with RAW264.7 macrophages. The experiment in a line: In vitro phagocytic assay (nitroblue tetrazolium (NBT) reduction test), RAW264.7 macrophages. Particulars: 5-20 μg/ml individually, 75 μg/ml mixture, 24 h, FIG. 1A.
Protocol: RAW264.7 macrophages (5×10^6 cells/well of a 96-well plate) were cultured with different micronutrients and plant extracts (5-20 μg/ml) for 24 h at 37° C. Thereafter, 20 μl C. albicans or S. mutans (5×10^7 cells/ml in PBS) suspension, and 20 μl nitroblue tetrazolium (1.5 mg/ml of NBT in PBS) were added to each well. Wells that received PBS+DMSO were used as control. Next, cells were incubated for 3 h at 37° C., the supernatant was removed, and the adherent macrophages were rinsed with RPMI 1640. The cells were air dried before 80 μl of 2M KOH and 100 μl DMSO were added to each well. The absorbance was measured at 570 nm using the microplate reader. Percentage of NBT reduction (reflecting phagocytic activity) was calculated as following equation: Phagocytic Index=(ODsample−ODcontrol)/ODcontrol.
The assay used nitroblue tetrazolium (NBT) reduction test after treatment with different individual micronutrients and plant extracts (5-20 μg/ml) and their combination for 24 h at 37° C. PI and phagocytosis was tested using C. albicans and S. mutants. Values shown are mean±standard deviation (n=4).
Data set [3] has as its system YAC-1 cells. The data set is described as follows: Cytotoxicity assay of natural killer (NK) cells toward target YAC-1 cells (MTT). Particulars: individual compounds 5-20 μg/ml, 24 h, FIG. 2. Here is the method: Cytotoxicity Assay of Natural Killer (NK) Cells were performed using splenic natural killer (as the effector cells) activity assay was carried out according as described by Yi et al. Carbohydr. Polym. 2012, 87:636-643. The splenocytes/splenic NK cells were plated into 96-well plates at a density of 1×10^7 cells/ml per well in a 50 μl volume, and stimulated with different micronutrients and plant extracts (5-20 μg/ml) for 24 h at 37° C. Then, YAC-1 cells (1×10^6 cells/ml) were added into all experimental wells (group) and complete medium only was placed in the other wells as the effector control. At the same time, complete medium (100 μl), containing only YAC-1 cells (1×10^6 cells/ml), was added into empty wells as the target control. […] The absorbance was measured at 570 nm using a microplate reader. Cytotoxicity of NK cell was expressed as Cytotoxic Index (percent lysis of target cells): CI=[ODT−(ODexp.−ODE)]/ODT×100], where ODT represents OD value of the target control, whereas ODexp. and ODE represent OD value of the experimental group and effector control, respectively.
Cytotoxicity of NK cells toward target YAC-1 cells in the presence of different micronutrients and plant extracts (5-20 μg/ml) used individually and in a combination for 24 h at 37° C. Cytotoxicity of NK cells was assessed by the MTT assay and expressed as the mean±standard deviation (n=4).

In the case of `O=C(O)CCCCC1CCSS1` (stereo not drawn) [Alpha lipoic acid], in data set [1], the “comparative effectiveness in decreasing IL-6 secretion (in words)” value is reported as “best natural compounds”.

On to `O=C1O[C@H]([C@@H](O)CO)C(O)=C1O` [Vitamin C], for which, in data set [2], the “comparative effectiveness in stimulating phagocytic activity of RAW264.7 macrophages (in words)” value is reported as “most effective individual agents”. Further, in data set [1], the “comparative effectiveness in decreasing IL-6 secretion (in words)” value was “best natural compounds”.

As to Fucoidan, in data set [3], the “comparative effectiveness on NK cell cytotoxicity (in words)” value is given as “two most effective individual compounds”.

Turning to Lipopolysaccharide [LPS], the “stimulation of IL-6 secretion by exposure of RAW264.7 macrophages to LPS” value in data set [1] (LPS 10 ng/ml, 24 h, no treatment (positive control)) is recorded as “over 300%”.
